Patent EP1369117A1, “Use of derivatives and precursors of oxaziridine in the treatment of cancerous tumours” (priority 2002, dated 2003)
Converted amounts (≈) assume the structure as drawn. Where two headings read alike, the source gives them in different places.

Columns and labels:
Assay type in all cases: cell-based
[1] = system: B16 (Lignée de mélanome murin); test: MTT test, anti-tumour activity on B16 cell line; details: for IC50: Mus musculus, B16, light or radiation study
Experimental: (§1) Différents composés de l'invention ont été testés pour leurs activités anti-tumorales sur différentes lignées tumorales murines ou humaines et comparés à des produits anti-tumoraux connus.
(§2) Les lignées cellulaires testées sont la lignée lymphoblastoïde murine P388, la lignée de mélanome murin B16, la lignée de kératinocytes humains HaCaT, la lignée de mélanome humain HBL.
(§3) L'action anti-tumorale des composés de l'invention a été testée sur ces différentes lignées après différentes durées d'incubation (30 minutes, 2 heures, 3 heures, 48 heures ou 72 heures).
(§4) En outre, différents types d'irradiation, différentes durées d'irradiation (30 minutes ou 60 minutes) ainsi que différentes durées d'incubation ont été testés.
(§5) Les différents résultats sont présentés dans le tableau 1 annexé.

[2] = system: P388 (Lignée lymphoblastoïde murine); test: MTT test, anti-tumour activity on P388 cell line; details: for IC50: Mus musculus
Experimental: as §1, §2, §3, §4, §5

[3] = system: HaCaT (Lignée de kératinocytes humains); test: MTT test, anti-tumour activity on HaCaT cell line; details: Homo sapiens, rest 24 h, incubation 3 h, 4°C, incubation before MTT test 45 h, read-out: Dose efficace DL50
Experimental: as §1, §2, §3, §4, §5

[4] = system: HBL (Lignée de mélanome humain); test: MTT test, anti-tumour activity on HBL cell line; details: Homo sapiens, rest 24 h, incubation 3 h, 4°C, incubation before MTT test 45 h, read-out: Dose efficace DL50
Experimental: as §1, §2, §3, §4, §5

[5] = B16, rest after culture 24 h, incubation 2 h, no irradiation, incubation before MTT test 72 h
[6] = B16, rest after culture 24 h, incubation 72 h, no irradiation, incubation before MTT test 0 h
[7] = P388, rest after culture 24 h, incubation 2 h, no irradiation, incubation before MTT test 48 h
[8] = P388, rest after culture 24 h, incubation 48 h, no irradiation, incubation before MTT test 0 h
[9] = B16, rest after culture 24 h, incubation 2 h, no irradiation, incubation before MTT test 72 h, read-out: Dose efficace DL50
[10] = B16, rest after culture 24 h, incubation 72 h, no irradiation, incubation before MTT test 0 h, read-out: Dose efficace DL50
[11] = light or radiation study, P388, rest after culture 24 h, incubation 2 h, no irradiation, incubation before MTT test 48 h, read-out: Dose efficace DL50
[12] = read-out: Dose efficace DL50, B16, rest after culture 24 h, incubation 2 h, no irradiation, incubation before MTT test 72 h
[13] = read-out: Dose efficace DL50, B16, rest after culture 24 h, incubation 72 h, no irradiation, incubation before MTT test 0 h
[14] = P388, light or radiation study, read-out: Dose efficace DL50, P388, rest after culture 24 h, incubation 2 h, no irradiation, incubation before MTT test 48 h
[15] = P388, light or radiation study, read-out: Dose efficace DL50, P388, rest after culture 24 h, incubation 48 h, no irradiation, incubation before MTT test 0 h
[16] = light or radiation study, UVA Cléo + filtre UVB + polyéthylène, irradiation 60 min

Compound: CNC1=Nc2ccccc2C(c2ccccc2)=[N+]([O-])C1 [deschlordiazépoxide, deschlorodiazépoxide]
- Dose efficace DL50 [1, 5]: > 100 µg/mL
- Dose efficace DL50 [1, 6]: > 100 µg/mL
- Dose efficace DL50 [2, 7]: > 100 µg/mL
- Dose efficace DL50 [2, 8]: > 100 µg/mL

Compound: oxaziridine de deschlorodiazépoxide [oxaziridine du deschlordiazépoxide]
- Dose efficace DL50 [1, 5]: 14 µg/ml μg/ml
- Dose efficace DL50 [1, 6]: 8 µg/ml μg/ml
- Dose efficace DL50 [2, 7]: 22 µg/mL
- Dose efficace DL50 [2, 8]: 12 µg/mL

Compound: O=C1C[N+]([O-])=C(c2ccccc2)c2cc(Cl)ccc2N1 [démoxépan, demoxepan]
- IC50 [1, 9]: > 100 µg/mL
- IC50 [1, 10]: > 100 µg/mL
- IC50 [2, 11]: > 100 µg/mL
- Dose efficace DL50 [2, 8]: > 100 µg/mL

Compound: N[C@@H](Cc1ccc(N(CCCl)CCCl)cc1)C(=O)O [Melphalan, reference compound]
- Dose efficace DL50 [1]: 10 µg/mL
- IC50 ([1]; read-out: Dose efficace DL50): 12 µg/mL (≈ 39.3 µM)
- Dose efficace DL50 [2]: 7 µg/mL
- IC50 ([2]; P388, light or radiation study, read-out: Dose efficace DL50): 9 µg/mL (≈ 29.5 µM)

Compound: CNC1=Nc2ccc(Cl)cc2C2(c3ccccc3)ON2C1 (centres unmarked) [oxaziridine du chlordiazépoxide, oxaziridine de chlorodiazépoxide]
- IC50 [1, 12]: 32 µg/mL (≈ 107 µM)
- IC50 [1, 13]: 15 µg/mL (≈ 50 µM)
- IC50 [2, 14]: 41 µg/mL (≈ 137 µM)
- IC50 [2, 15]: 34 µg/mL (≈ 113 µM)

Compound: O=C1CN2OC2(c2ccccc2)c2cc(Cl)ccc2N1 (centres unmarked) [oxaziridine du démoxépan, oxaziridine de demoxepan]
- IC50 [1, 12]: 22 µg/mL (≈ 76.7 µM)
- IC50 [1, 13]: 11 µg/mL (≈ 38.4 µM)
- IC50 [2, 14]: 62 µg/mL (≈ 216 µM)
- IC50 [2, 15]: 22 µg/mL (≈ 76.7 µM)

Compound: CNC1=Nc2ccc(Cl)cc2C(c2ccccc2)=[N+]([O-])C1 [chlordiazépoxide, chlorodiazépoxide, reference compound]
- IC50 ([3]; light or radiation study, UVA Cléo + filtre UVB + polyéthylène, irradiation 30 min): 36 µg/mL
- IC50 [3, 16]: 24 µg/mL
- IC50 ([3]; no light source (---), 30 min): > 100 µg/mL
- IC50 [4, 16]: 12 µg/mL
- IC50 ([4]; no light source (---), 30 min): > 100 µg/mL
- IC50 ([1]; B16, rest 24 h, incubation 30 min, lampe de Wood, RT, irradiation 30 min, no time before washing (---), incubation before MTT test 72 h, read-out: Dose efficace DL50): 7 µg/mL (≈ 23.4 µM)
- IC50 ([1]; B16, rest 24 h, incubation 30 min, lampe de Wood, RT, irradiation 30 min, time before washing 1 h, incubation before MTT test 72 h, read-out: Dose efficace DL50): 9 µg/mL (≈ 30 µM)
- IC50 [1, 9]: > 100 µg/mL
- IC50 [1, 10]: > 100 µg/mL
- IC50 [2, 11]: > 100 µg/mL
- Dose efficace DL50 [2, 8]: > 100 µg/mL
